Reference: patent US6949529B2, “Compositions containing lysophosphotidic acids which inhibit apoptosis and uses thereof” (Sky High, LLC, priority 1997, dated 2005)

Test system: rat neonatal cardiomyocytes
Assay: Cardiomyocyte death induced by ischemia and reperfusion (in vitro model)
Assay type: cell-based
Details: mixture with PEG (FIG. 14)
Description: Cardiomyocytes were prepared from hearts of day-old Sprague Dawley rats by trypsinization and mechanical disaggregation (Simpson, (1985)) Circ. Res. 56:884-894. The cells were resuspended in MEM, 1×MEM vitamins (Gibco), 5% fetal bovine serum and 50 U/ml penicillin-G and pre-plated for 30 minutes to reduce contamination of non-myocytes. The non-adherent cardiac myocytes were separated and seeded in 2 ml in 35 mm dishes at a density of 3.5×10^5 viable cells per ml. The cells were allowed to adhere for 16-24 hours in a 37° C./5% CO2 humidified incubator.
For serum deprivation, the medium was replaced with fresh serum-free RPMI, whereas serum/glucose deprivation was performed using glucose-free RPMI. The induction of cell death by adriamycin or C2-ceramide was accomplished by the addition of the agent prepared in serum-free RPMI. As a model of ischemia, cultures in serum and glucose free RPMI were placed in an airtight chamber and the latter was continuously perfused with oxygen-free gas overlay of 95% N2/5% CO2 for 8 hours at 37° C. […]
Because cardiomyocytes are terminally differentiated non-dividing cells, viability was determined by measurement of the decrease in the relative number of adherent cells. […] Adherent cardiomyocytes were collected from culture dishes using 0.25% Trypsin/0.05% EDTA and counted on Coulter Counter ZM and Coulter Channelyzer 256.

## CCCCCCCC/C=C\CCCCCCCC(=O)OCC(O)COP(=O)(O)O (stereo not shown) [18:1 LPA, oleoyl-lysophosphatidic acid]
  cardiomyocyte death induced by ischemia and reperfusion: equally protect
